Each compound was assayed against T1, human PAH with the R408W mutation (Homo sapiens, UniProt P00439, R408W) (assay: Cell Based Phenylalanine Flux Assay). Details: A375 cells expressing human PAH R408W; 24 hrs compound incubation; 13C-Tyrosine by LC-MS; average where tested multiple times; read-out: AC50.
T1 construct: expressed in transfected cells
T1 sequence (P00439 1-452 R408W): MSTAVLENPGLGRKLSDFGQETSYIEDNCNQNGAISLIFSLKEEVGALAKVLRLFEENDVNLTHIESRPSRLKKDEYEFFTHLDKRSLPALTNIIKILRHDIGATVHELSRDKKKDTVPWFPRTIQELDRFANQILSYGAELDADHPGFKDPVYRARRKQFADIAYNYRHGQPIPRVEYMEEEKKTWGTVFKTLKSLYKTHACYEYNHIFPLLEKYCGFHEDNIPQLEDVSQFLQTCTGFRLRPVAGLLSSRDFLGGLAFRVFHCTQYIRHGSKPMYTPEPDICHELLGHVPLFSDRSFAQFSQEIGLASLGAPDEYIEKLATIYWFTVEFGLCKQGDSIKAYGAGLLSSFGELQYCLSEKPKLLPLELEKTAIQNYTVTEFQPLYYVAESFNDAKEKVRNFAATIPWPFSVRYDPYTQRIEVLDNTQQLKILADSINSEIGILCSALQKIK
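Also: after compound treatment, cells received sepiapterin plus isotope-labelled Phenylalanine for 4 hours, then labelled Tyrosine in the medium was quantified, 10-point 2-fold dilution series run in duplicate.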

| Compound | AC50 |
| --- | --- |
| Cc1cccnc1-c1nnc(N2CCc3[nH]cnc3[C@H]2c2cc3c(C(F)(F)F)cccn3n2)o1 [Example 2276, (S)-2-(3-methylpyridin-2-yl)-5-(4-(4-(trifluoromethyl)pyrazolo[1,5-a]pyridin-2-yl)-1,4,6,7-tetrahydro-5H-imidazo[4,5-c]pyridin-5-yl)-1,3,4-oxadiazole] | < 0.5 µM |
| Cc1cccnc1-c1nnc(N2CCc3[nH]cnc3[C@@H]2c2cc3c(C(F)(F)F)cccn3n2)o1 [Example 2277, (R)-2-(3-methylpyridin-2-yl)-5-(4-(4-(trifluoromethyl)pyrazolo[1,5-a]pyridin-2-yl)-1,4,6,7-tetrahydro-5H-imidazo[4,5-c]pyridin-5-yl)-1,3,4-oxadiazole] | > 5 µM |
| Cc1cccnc1-c1nnc(N2CCc3[nH]cnc3[C@@H]2c2cc3c(C4CC4)cccn3n2)o1 [Example 2282, (R)-2-(4-(4-cyclopropylpyrazolo[1,5-a]pyridin-2-yl)-1,4,6,7-tetrahydro-5H-imidazo[4,5-c]pyridin-5-yl)-5-(3-methylpyridin-2-yl)-1,3,4-oxadiazole] | > 5 µM |
| Cc1cccnc1-c1nnc(N2CCc3[nH]cnc3[C@@H]2c2cc3c(C(C)C)cccn3n2)o1 [Example 2284, (R)-2-(4-(4-isopropylpyrazolo[1,5-a]pyridin-2-yl)-1,4,6,7-tetrahydro-5H-imidazo[4,5-c]pyridin-5-yl)-5-(3-methylpyridin-2-yl)-1,3,4-oxadiazole] | > 5 µM |
| Cc1cccnc1-c1nnc(N2CCc3[nH]cnc3[C@H]2c2cc3c(C(C)C)cccn3n2)o1 [Example 2285, (S)-2-(4-(4-isopropylpyrazolo[1,5-a]pyridin-2-yl)-1,4,6,7-tetrahydro-5H-imidazo[4,5-c]pyridin-5-yl)-5-(3-methylpyridin-2-yl)-1,3,4-oxadiazole] | < 0.5 µM |

Other lines, results leading:

| AC50 | Compound |
| --- | --- |
| > 5 µM | Cc1cccc2cc([C@H]3c4nc[nH]c4CCN3c3nnc(-c4cccnc4F)o3)nn12 [Example 2275, (R)-2-(2-fluoropyridin-3-yl)-5-(4-(7-methylpyrazolo[1,5-a]pyridin-2-yl)-1,4,6,7-tetrahydro-5H-imidazo[4,5-c]pyridin-5-yl)-1,3,4-oxadiazole] |
| > 5 µM | Cc1cccnc1-c1nnc(N2CCc3[nH]cnc3[C@@H]2c2cc3c(C(F)F)cccn3n2)o1 [Example 2278, (R)-2-(4-(4-(difluoromethyl)pyrazolo[1,5-a]pyridin-2-yl)-1,4,6,7-tetrahydro-5H-imidazo[4,5-c]pyridin-5-yl)-5-(3-methylpyridin-2-yl)-1,3,4-oxadiazole] |
| < 0.5 µM | Cc1cccnc1-c1nnc(N2CCc3[nH]cnc3[C@H]2c2cc3c(F)cccn3n2)o1 [Example 2280, (S)-2-(4-(4-fluoropyrazolo[1,5-a]pyridin-2-yl)-1,4,6,7-tetrahydro-5H-imidazo[4,5-c]pyridin-5-yl)-5-(3-methylpyridin-2-yl)-1,3,4-oxadiazole] |
| < 0.5 µM | Cc1cccnc1-c1nnc(N2CCc3[nH]cnc3[C@H]2c2cc3c(C4CC4)cccn3n2)o1 [Example 2283, (S)-2-(4-(4-cyclopropylpyrazolo[1,5-a]pyridin-2-yl)-1,4,6,7-tetrahydro-5H-imidazo[4,5-c]pyridin-5-yl)-5-(3-methylpyridin-2-yl)-1,3,4-oxadiazole] |
| > 5 µM | Cc1cccnc1-c1nnc(N2CCc3[nH]cnc3[C@@H]2c2cc3c(Cl)cccn3n2)o1 [Example 2286, (R)-2-(4-(4-chloropyrazolo[1,5-a]pyridin-2-yl)-1,4,6,7-tetrahydro-5H-imidazo[4,5-c]pyridin-5-yl)-5-(3-methylpyridin-2-yl)-1,3,4-oxadiazole] |
| < 0.5 µM | Fc1cccnc1-c1nnc(N2CCc3[nH]cnc3[C@H]2c2cc3c(F)cccn3n2)o1 [Example 2289, (S)-2-(4-(4-fluoropyrazolo[1,5-a]pyridin-2-yl)-1,4,6,7-tetrahydro-5H-imidazo[4,5-c]pyridin-5-yl)-5-(3-fluoropyridin-2-yl)-1,3,4-oxadiazole] |

— patent publication US20230365592A1 (Agios Pharmaceuticals, Inc., priority 2022, published 2023)
